Experimental data from patent publication US11873298B2, “Compounds and uses thereof” (JANSSEN PHARMACEUTICA NV, priority 2017, dated 2024).
Values joined by “and” are separate entries in the source; they are usually repeats but may differ in a detail not shown here. Equal entries are not always repeated.

How the values were obtained:
Format in all cases: cell-based
[1] = biological target: T1, Ole1 (Saccharomyces cerevisiae, UniProt P21147); test: Growth inhibition of yeast strain expressing Ole1 as sole desaturase; conditions: yeast strain expressing Ole1 as sole desaturase
T1 construct: expressed in transfected cells; host or cells: S. cerevisiae ole1Δ strain (W303 pdr1Δ pdr3Δ background), plasmid pRS316 with TDH3 promoter and CYC1 terminator
T1 sequence (P21147 1-510): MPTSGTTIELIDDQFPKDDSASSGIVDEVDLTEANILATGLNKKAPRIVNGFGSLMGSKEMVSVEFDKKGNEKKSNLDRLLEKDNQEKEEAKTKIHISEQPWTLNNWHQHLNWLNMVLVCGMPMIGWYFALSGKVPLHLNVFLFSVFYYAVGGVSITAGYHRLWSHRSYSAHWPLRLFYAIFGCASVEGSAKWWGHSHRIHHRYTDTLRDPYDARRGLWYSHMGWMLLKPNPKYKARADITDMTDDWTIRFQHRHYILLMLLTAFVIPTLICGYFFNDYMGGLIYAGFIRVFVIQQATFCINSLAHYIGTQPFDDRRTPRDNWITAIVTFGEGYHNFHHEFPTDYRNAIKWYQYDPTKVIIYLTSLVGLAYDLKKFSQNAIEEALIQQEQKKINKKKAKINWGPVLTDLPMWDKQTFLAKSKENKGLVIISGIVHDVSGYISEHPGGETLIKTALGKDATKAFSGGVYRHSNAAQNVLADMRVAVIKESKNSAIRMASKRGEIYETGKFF
In short: (§1)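 Yeast ole1Δ strain (W303 pdr1Δ pdr3Δ background) carrying plasmid-borne Ole1, SCD1 or SCD5 as sole desaturase was grown in uracil-lacking media, pre-cultured in raffinose for 6 h, then seeded in galactose medium with compound in DMSO. Growth was read as OD600 after 30° C. incubation: 24 h for Ole1, 40 h for SCD1/SCD5.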

[2] = biological target: T2, SCD1 (Homo sapiens, UniProt O00767); test: Growth inhibition of humanized yeast strain expressing SCD1 as sole desaturase; conditions: humanized yeast strain expressing SCD1
T2 construct: host or cells: S. cerevisiae ole1Δ strain (W303 pdr1Δ pdr3Δ background), plasmid pRS316 with TDH3 promoter and CYC1 terminator
T2 sequence (O00767 1-359): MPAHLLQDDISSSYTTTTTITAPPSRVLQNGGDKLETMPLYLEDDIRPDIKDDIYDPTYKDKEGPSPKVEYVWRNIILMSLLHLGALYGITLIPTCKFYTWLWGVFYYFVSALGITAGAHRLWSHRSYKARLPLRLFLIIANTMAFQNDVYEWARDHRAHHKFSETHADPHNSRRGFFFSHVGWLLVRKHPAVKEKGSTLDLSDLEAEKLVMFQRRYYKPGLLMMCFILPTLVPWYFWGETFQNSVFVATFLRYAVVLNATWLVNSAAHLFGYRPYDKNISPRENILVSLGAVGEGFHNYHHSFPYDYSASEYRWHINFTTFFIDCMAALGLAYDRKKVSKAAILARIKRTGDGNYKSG
In short: as §1

[3] = biological target: T3, SCD5 (Homo sapiens, UniProt Q86SK9); test: Growth inhibition of humanized yeast strain expressing SCD5 as sole desaturase; conditions: humanized yeast strain expressing SCD5
T3 construct: host or cells: S. cerevisiae ole1Δ strain (W303 pdr1Δ pdr3Δ background), plasmid pRS316 with TDH3 promoter and CYC1 terminator
T3 sequence (Q86SK9 1-330): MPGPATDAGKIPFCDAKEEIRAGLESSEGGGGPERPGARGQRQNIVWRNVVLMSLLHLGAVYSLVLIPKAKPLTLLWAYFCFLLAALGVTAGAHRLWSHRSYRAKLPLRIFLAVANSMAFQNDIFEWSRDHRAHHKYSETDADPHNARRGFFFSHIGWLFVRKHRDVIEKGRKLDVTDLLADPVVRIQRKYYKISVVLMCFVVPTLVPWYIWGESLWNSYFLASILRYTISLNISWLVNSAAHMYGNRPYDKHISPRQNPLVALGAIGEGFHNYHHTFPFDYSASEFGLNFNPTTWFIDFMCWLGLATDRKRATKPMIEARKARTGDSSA
In short: as §1

Compound | IC50 [1] | OLE1 % Max Inhibition [1] | IC50 [2] | SCD1 % Max Inhibition [2] | IC50 [3] | SCD5 % Max Inhibition [3]
CC(C)n1ncc2ccc(-c3noc(C4CCN(C(=O)C5CC(=O)N(c6ccccc6)C5)CC4)n3)cc21 (stereo not shown) [Compound 174] | > 45 µM | 89.17% | > 45 µM | 79.07% | > 45 µM | 10.95%
Cc1nn(C)c2cc(-c3noc(N4CCN(C(=O)CN5Cc6ccccc6C5=O)CC4)n3)ccc12 [Compound 219] | > 45 µM | 3.50% | > 45 µM | 95.22% | > 45 µM | 89.83%
Cc1nn(C)c2cc(-c3noc(C4CCN(C(=O)C5CNC(=O)C5)CC4)n3)ccc12 (stereo not shown) [Compound 126] | > 45 µM | 73.29% | > 45 µM | 69.80% | 30 µM | 79.08%
Cc1nn(C)c2cc(-c3noc(C4CCN(C(=O)C5CC(=O)N(c6ccccc6C#N)C5)CC4)n3)ccc12 (stereo not shown) [Compound 170] | 40.4 µM | 67.97% | > 45 µM | 103.19% | > 45 µM | 85.13%
C[C@H]1CN(c2noc(C3CCN(C(=O)C4CC(=O)N(c5cccc(Cl)c5)C4)CC3)n2)C[C@H](C)O1 (stereo partly shown) [Compound 324] | > 45 µM | 90.5% | > 45 µM | 74.9% | > 45 µM | 68.7%
CCOC(=O)C(C)(C)n1cc2ccc(-c3noc(C4CCN(C(=O)C5CC(=O)N(c6ccccc6)C5)CC4)n3)cc2n1 (stereo not shown) [Compound 193] | > 45 µM | 89.35% | > 45 µM | 80.72% | > 45 µM | 85.76%
CC(C)(C#N)C1CN(c2noc(C3CCN(C(=O)C4CC(=O)N(c5ccccc5)C4)CC3)n2)C1 (stereo not shown) [Compound 254] | > 45 µM | 92.77% | > 45 µM | 69.80% | > 45 µM | 83.13%
Cc1nn(C)c2cc(-c3noc(C4CCN(C(=O)[C@H](NC(=O)c5ccccc5)C5CC5)CC4)n3)ccc12 [Compound 191] | > 45 µM | 89.31% | > 45 µM | 81.79% | > 45 µM | 6.72%
Cn1ncc2ccc(NC(=O)C3CCN(C(=O)C4CC(=O)N(c5ccccc5)C4)CC3)cc21 (stereo not shown) [Compound 213] | > 45 µM | 94.72% | > 45 µM | 86.35% | > 45 µM | 85.33%
CCc1c2ccc(-c3noc(C4CCN(C(=O)CNC(=O)c5ccccc5)CC4)n3)cc2nn1C [Compound 321] | > 45 µM | 14.0% |  | 71.6% | > 45 µM | 74.1%
Cc1nn(C)c2cc(-c3noc(N4C[C@H]5CN(C(=O)CNC(=O)c6ccccc6)C[C@H]5C4)n3)ccc12 [Compound 207] | > 45 µM | 5.39% | > 45 µM | 86.42% | > 45 µM | 72.56%
Cc1nn(C)c2cc(-c3noc(C4CCN(C(=O)C5CC(=O)N(c6ccccn6)C5)CC4)n3)ccc12 (stereo not shown) [Compound 195] | > 45 µM | 3.86% | > 45 µM | 75.08% | > 45 µM | 9.78%
O=C(C1CC(=O)N(c2cccc(Cl)c2)C1)N1CCC(c2nc(N3CCOCC3)no2)CC1 (stereo not shown) [Compound 323] | > 45 µM | 89.1% | > 45 µM | 76.1% | > 45 µM | 73.5%
COc1ccc(-c2noc(C3CCN(C(=O)[C@@H](CO)NC(=O)c4ccccc4)CC3)n2)cc1OC [Compound 185] | > 45 µM | 93.51% | > 45 µM | 97.91% | > 45 µM | 72.91%
CCN1C(=O)CN(C)c2cc(-c3noc(C4CCN(C(=O)CNC(=O)c5ccccc5)CC4)n3)ccc21 [Compound 310] | > 45 µM | 7.1% |  | 71.2% | > 45 µM | 66.6%
COc1ccc(-c2noc(CCNC(=O)CNC(=O)c3ccccc3)n2)cc1OC [Compound 484] | > 45 µM | 92.09% |  | 75.84% | > 45 µM | 81.46%
Cc1nn(C)c2cc(-c3noc(C4CCN(C(=O)C5CC(=O)N(c6ccc(F)cn6)C5)CC4)n3)ccc12 (stereo not shown) [Compound 275] | > 45 µM | 11.24% | > 45 µM | 76.51% | > 45 µM | 78.05%
Cc1nn(C)c2cc(-c3noc(C4CCN(C(=O)[C@@H]5CC(=O)N(c6cccc(C#N)c6)C5)CC4)n3)ccc12 [Compound 306] | > 45 µM | 33.2% and 36.88% | ≥ 45 µM | 67.6% and 63.32% | > 45 µM | 
N#CCC1CN(c2noc(C3CCN(C(=O)C4CC(=O)N(c5ccccc5)C4)CC3)n2)C1 (stereo not shown) [Compound 242] | > 45 µM | 95.59% | > 45 µM | 101.23% | > 45 µM | 79.22%
Cc1nn(C)c2cc(-c3noc(N4CCN(C(=O)c5ccccc5)CC4)n3)ccc12 [Compound 261] | > 45 µM | 94.41% |  | 73.42% | > 45 µM | 82.31%
CCOc1ccc(-c2noc(C3CCN(C(=O)CN4Cc5c(F)cccc5C4=O)CC3)n2)cc1OC [Compound 175] | > 45 µM | 3.00% | > 45 µM | 77.47% | > 45 µM | 77.96%
